Measured values as given in patent publication US12187773B2, “Modified GIP peptide analogues” (Antag Therapeutics ApS, priority 2018, dated 2025).
*1 amine or outer side, *2 acyl side, *3 side chain or, on linkers, in order; H or OH if unused. Where a SMILES comes first, the peptide text is derived from it. Side-chain parts run from the residue outwards. [ ]: non-standard residue; d: D form. The star is where a group is joined. C18 diacid = O=C(O)CCCCCCCCCCCCCCCCC(=O)*; C16 diacid = O=C(O)CCCCCCCCCCCCCCC(=O)*; γGlu = O=C(O)[C@H](CCC(=O)[*:2])N[*:1]; pGlu = O=C1CC[C@@H](C(=O)O)N1; AEEA = NCCOCCOCC(=O)O

Key:
Type in all cases: cell-based
secretin receptor (SCTR) = biological target: T1, secretin receptor (SCTR) (Homo sapiens, UniProt P47872); assay: cAMP assay - selectivity, antagonism at secretin receptor; conditions: Table 3B; COS-7 cells; agonist secretin
T1 construct: expressed in transfected cells; host or cells: COS-7 (transient)
Protocol: (§1) Transient transfected COS-7 cells expressing the either of the GLP1 receptor (GLP1R), GLP2 receptor (GLP2R), glucagon receptor (GcgR) or secretin receptor (SCTR) were seeded in white 96-well plates with a density of 3.5*10^4/well. The day after, the cells were washed twice with Hepes buffered saline (HBS) buffer and incubated with HBS and 1 mM 3-isobutyl-1-methylxanthine (IBMX) for 30 min at 37° C. To test for agonistic properties, ligands were added and incubated for 30 min at 37° C. In order to test for antagonistic properties, the cells were preincubated with the antagonists for 10 min prior to the addition the natural agonist for the expressed receptor (GLP1 for GLP1R expressing cells, GLP2 for GLP2R expressing cells, glucagon for the GcgR and secretin for the SCTR) and subsequent incubated for 20 additional min. […] The HitHunter™ cAMP XS assay (DiscoveRx) was carried out according to the manufacturer's instructions.

human GIP receptor [1] = biological target: T2, human GIP receptor (Homo sapiens, UniProt P48546); assay: cAMP accumulation, agonism (DiscoveRx HitHunter cAMP XS assay); design: host or cells: COS-7 (transient, calcium phosphate; pCMV-Script vector); conditions: Table 1B; DiscoveRx; COS-7 cells
T2 sequence (P48546 22-466): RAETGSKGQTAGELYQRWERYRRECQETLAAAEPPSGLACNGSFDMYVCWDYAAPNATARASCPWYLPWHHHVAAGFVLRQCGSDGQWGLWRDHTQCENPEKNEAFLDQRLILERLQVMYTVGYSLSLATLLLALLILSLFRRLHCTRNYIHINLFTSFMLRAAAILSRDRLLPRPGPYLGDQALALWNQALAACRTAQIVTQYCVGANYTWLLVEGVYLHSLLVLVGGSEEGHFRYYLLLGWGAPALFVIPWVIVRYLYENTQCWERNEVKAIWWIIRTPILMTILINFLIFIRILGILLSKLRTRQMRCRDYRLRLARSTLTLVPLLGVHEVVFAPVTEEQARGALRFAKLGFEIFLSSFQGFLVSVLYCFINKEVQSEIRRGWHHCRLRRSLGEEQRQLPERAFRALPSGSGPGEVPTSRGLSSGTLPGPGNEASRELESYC
Procedure, shortened: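 cAMP accumulation measured by HitHunter cAMP XS in COS-7 cells transiently expressing human GIP receptor, after 30 min in HBS with 1 mM IBMX at 37 °C. Antagonists preincubated 10 min before GIP giving 50-80% of maximum, then 20 min more; agonist mode used 30 min ligand exposure.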

GLP1 receptor (GLP1R) = biological target: T3, GLP1 receptor (GLP1R) (Homo sapiens, UniProt P43220); assay: cAMP assay - selectivity, antagonism at GLP1 receptor; conditions: Table 3A; COS-7 cells; agonist GLP1 at 50-80% of maximal cAMP
T3 construct: expressed in transfected cells; host or cells: COS-7 (transient)
Protocol: as §1

human GIP receptor [2] = biological target: T2, human GIP receptor; assay: cAMP accumulation, antagonism (DiscoveRx HitHunter cAMP XS assay); design: host or cells: COS-7 (transient, calcium phosphate; pCMV-Script vector); conditions: for cAMP antagonism, % inhib / GIPR, Antagonism, % inhib: COS-7 cells; for cAMP antagonism, % inhib: % inhibition of Emax; for GIPR, Antagonism, % inhib: Table 3A/3B
Procedure, shortened: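 Transiently transfected COS-7 cells expressing human GIP receptor, pretreated with 1 mM IBMX in HBS 30 min at 37 °C. Agonism: ligand 30 min at 37 °C; antagonism: 10 min antagonist preincubation, then GIP at 50-80% maximal response for 20 min. cAMP measured by HitHunter cAMP XS.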

human GIP receptor [3] = biological target: T2, human GIP receptor; assay: cAMP agonism (CisBio cAMP Dynamic 2 HTRF assay); conditions: HEK293, read-out: cAMP agonism, % Efficacy, Table 1C, HEK-293 cells
Protocol: To test for agonistic properties at the GIP receptor, compounds were diluted and added to cells as described above and incubated for 30 min at 37° C. The resulting increase in intracellular cAMP was determined using the CisBio cAMP Dynamic 2 HTRF Assay Kit as described above.

[4] = cAMP antagonism, nM (IC50), Table 1B, DiscoveRx, transiently transfected COS-7 cells
[5] = IC50-value (GIPR antagonism), Examples 1 and 2, values of Tables 1B and 2

T1 sequence (P47872 23-440, species assumed): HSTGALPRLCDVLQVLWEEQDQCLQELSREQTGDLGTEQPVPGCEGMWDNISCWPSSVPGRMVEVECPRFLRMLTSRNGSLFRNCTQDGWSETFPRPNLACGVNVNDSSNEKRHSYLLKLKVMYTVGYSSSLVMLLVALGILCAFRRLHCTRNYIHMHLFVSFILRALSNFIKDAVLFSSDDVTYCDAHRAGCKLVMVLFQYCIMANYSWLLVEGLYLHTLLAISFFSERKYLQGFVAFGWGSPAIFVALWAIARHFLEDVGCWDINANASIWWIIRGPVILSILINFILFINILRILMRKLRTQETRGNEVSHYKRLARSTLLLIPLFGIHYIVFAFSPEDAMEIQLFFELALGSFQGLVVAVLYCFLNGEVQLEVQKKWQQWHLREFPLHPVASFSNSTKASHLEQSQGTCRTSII
T3 sequence (P43220 24-463, species assumed): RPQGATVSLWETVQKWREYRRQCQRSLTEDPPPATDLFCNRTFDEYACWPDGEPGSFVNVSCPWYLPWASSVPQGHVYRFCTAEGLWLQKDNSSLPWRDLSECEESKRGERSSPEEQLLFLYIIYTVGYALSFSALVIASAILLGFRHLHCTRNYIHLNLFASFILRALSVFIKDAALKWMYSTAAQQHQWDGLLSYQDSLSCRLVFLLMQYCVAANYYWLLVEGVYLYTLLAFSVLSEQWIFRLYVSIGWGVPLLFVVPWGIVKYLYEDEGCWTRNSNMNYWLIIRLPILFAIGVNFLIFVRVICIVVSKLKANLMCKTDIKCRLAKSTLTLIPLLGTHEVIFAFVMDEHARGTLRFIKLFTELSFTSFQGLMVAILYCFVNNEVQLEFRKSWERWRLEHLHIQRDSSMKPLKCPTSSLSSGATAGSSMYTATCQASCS

Row | Structure (SMILES) | Secretin R, Antagonism (secretin receptor (SCTR)) | cAMP agonism, Emax (human GIP receptor [1]) | GLP-1R, Antagonism, nM (GLP1 receptor (GLP1R)) | cAMP antagonism, % inhib (human GIP receptor [2]; Table 1B, DiscoveRx) | GIPR, Antagonism, % inhib (human GIP receptor [2]; DiscoveRx) | IC50 (human GIP receptor [2]; [4]) | Emax (human GIP receptor [3]) | IC50 (human GIP receptor [2]; [5])
1 | CC[C@H](C)[C@H](NC(=O)[C@H](CO)NC(=O)[C@H](Cc1ccc(O)cc1)NC(=O)[C@H](CC(=O)O)NC(=O)[C@H](CO)NC(=O)[C@@H](NC(=O)[C@H](Cc1ccccc1)NC(=O)[C@@H](NC(=O)CNC(=O)[C@@H]1CCC(=O)N1)[C@@H](C)O)[C@@H](C)CC)C(=O)N[C@@H](C)C(=O)N[C@@H](CCSC)C(=O)N[C@@H](CC(=O)O)C(=O)N[C@@H](CCCNC(=N)N)C(=O)N[C@H](C(=O)N[C@@H](CCCCNC(=O)COCCOCCNC(=O)COCCOCCNC(=O)COCCOCCNC(=O)CC[C@H](NC(=O)CCCCCCCCCCCCCCCCC(=O)O)C(=O)O)C(=O)N[C@@H](CCC(N)=O)C(=O)N[C@@H](CCC(N)=O)C(=O)N[C@@H](CC(=O)O)C(=O)N[C@@H](Cc1ccccc1)C(=O)N[C@H](C(=O)N[C@@H](CC(N)=O)C(=O)N[C@@H](Cc1c[nH]c2ccccc12)C(=O)N[C@@H](CC(C)C)C(=O)N[C@@H](CC(C)C)C(=O)N[C@@H](C)C(=O)N[C@@H](CCC(N)=O)C(=O)N[C@@H](CCCNC(=N)N)C(N)=O)C(C)C)[C@@H](C)CC [AT382] ([pGlu]GTFISDYSIAMDRIK([AEEA-AEEA-AEEA-γGlu-C18 diacid])QQDFVNWLLAQR-NH2) | No antagonism | No Agonism | No antagonism | 100% | 100.0% | 2 nM | 0% | 
2 | CC[C@H](C)[C@H](NC(=O)[C@H](CO)NC(=O)[C@H](Cc1ccc(O)cc1)NC(=O)[C@H](CC(=O)O)NC(=O)[C@H](CO)NC(=O)[C@@H](NC(=O)[C@H](Cc1ccccc1)NC(=O)[C@@H](NC(=O)CNC(=O)[C@@H](N)CO)[C@@H](C)O)[C@@H](C)CC)C(=O)N[C@@H](C)C(=O)N[C@@H](CCSC)C(=O)N[C@@H](CC(=O)O)C(=O)N[C@@H](CCCNC(=N)N)C(=O)N[C@H](C(=O)N[C@@H](CCCCNC(=O)COCCOCCNC(=O)COCCOCCNC(=O)COCCOCCNC(=O)CC[C@H](NC(=O)CCCCCCCCCCCCCCC(=O)O)C(=O)O)C(=O)N[C@@H](CCC(N)=O)C(=O)N[C@@H](CCC(N)=O)C(=O)N[C@@H](CC(=O)O)C(=O)N[C@@H](Cc1ccccc1)C(=O)N[C@H](C(=O)N[C@@H](CC(N)=O)C(=O)N[C@@H](Cc1c[nH]c2ccccc12)C(=O)N[C@@H](CC(C)C)C(=O)N[C@@H](CC(C)C)C(=O)N[C@@H](C)C(=O)N[C@@H](CCC(N)=O)C(=O)N[C@@H](CCCNC(=N)N)C(N)=O)C(C)C)[C@@H](C)CC [AT383] (H-SGTFISDYSIAMDRIK([AEEA-AEEA-AEEA-γGlu-C16 diacid])QQDFVNWLLAQR-NH2; N-terminus assumed) | No antagonism | No Agonism | No antagonism | 100% | 100.0% | 1 nM | 0% | 
3 | CC[C@H](C)[C@H](NC(=O)[C@H](CO)NC(=O)[C@H](Cc1ccc(O)cc1)NC(=O)[C@H](CC(=O)O)NC(=O)[C@H](CO)NC(=O)[C@@H](NC(=O)[C@H](Cc1ccccc1)NC(=O)[C@@H](NC(=O)CNC(=O)[C@@H](N)CO)[C@@H](C)O)[C@@H](C)CC)C(=O)N[C@@H](C)C(=O)N[C@@H](CCSC)C(=O)N[C@@H](CC(=O)O)C(=O)N[C@@H](CCCNC(=N)N)C(=O)N[C@H](C(=O)N[C@@H](CCCCNC(=O)COCCOCCNC(=O)COCCOCCNC(=O)CC[C@H](NC(=O)CCCCCCCCCCCCCCCCC(=O)O)C(=O)O)C(=O)N[C@@H](CCC(N)=O)C(=O)N[C@@H](CCC(N)=O)C(=O)N[C@@H](CC(=O)O)C(=O)N[C@@H](Cc1ccccc1)C(=O)N[C@H](C(=O)N[C@@H](CC(N)=O)C(=O)N[C@@H](Cc1c[nH]c2ccccc12)C(=O)N[C@@H](CC(C)C)C(=O)N[C@@H](CC(C)C)C(=O)N[C@@H](C)C(=O)N[C@@H](CCC(N)=O)C(=O)N[C@@H](CCCNC(=N)N)C(N)=O)C(C)C)[C@@H](C)CC [AT384] (H-SGTFISDYSIAMDRIK([AEEA-AEEA-γGlu-C18 diacid])QQDFVNWLLAQR-NH2; N-terminus assumed) | No antagonism | No Agonism | No antagonism | 100% | 100.0% | 8 nM | 0% | 8 nM
4 | CC[C@H](C)[C@H](NC(=O)[C@H](CO)NC(=O)[C@H](Cc1ccc(O)cc1)NC(=O)[C@H](CC(=O)O)NC(=O)[C@H](CO)NC(=O)[C@@H](NC(=O)[C@H](Cc1ccccc1)NC(=O)[C@@H](NC(=O)CNC(=O)[C@@H](N)CO)[C@@H](C)O)[C@@H](C)CC)C(=O)N[C@@H](C)C(=O)N[C@@H](CCSC)C(=O)N[C@@H](CC(=O)O)C(=O)N[C@@H](CCCNC(=N)N)C(=O)N[C@H](C(=O)N[C@@H](CCCCNC(=O)COCCOCCNC(=O)COCCOCCNC(=O)COCCOCCNC(=O)CC[C@H](NC(=O)CCCCCCCCCCCCCCCCC(=O)O)C(=O)O)C(=O)N[C@@H](CCC(N)=O)C(=O)N[C@@H](CCC(N)=O)C(=O)N[C@@H](CC(=O)O)C(=O)N[C@@H](Cc1ccccc1)C(=O)N[C@H](C(=O)N[C@@H](CC(N)=O)C(=O)N[C@@H](Cc1c[nH]c2ccccc12)C(=O)N[C@@H](CC(C)C)C(=O)N[C@@H](CC(C)C)C(=O)N[C@@H](C)C(=O)N[C@@H](CCC(N)=O)C(=O)N[C@@H](CCCNC(=N)N)C(N)=O)C(C)C)[C@@H](C)CC [AT385] (H-SGTFISDYSIAMDRIK([AEEA-AEEA-AEEA-γGlu-C18 diacid])QQDFVNWLLAQR-NH2; N-terminus assumed) | No antagonism | No Agonism | No antagonism | 100% | 100.0% | 4 nM | 3% | 4 nM
5 | CC[C@H](C)[C@H](NC(=O)[C@H](CO)NC(=O)[C@H](Cc1ccc(O)cc1)NC(=O)[C@H](CC(=O)O)NC(=O)[C@H](CO)NC(=O)[C@@H](NC(=O)[C@H](Cc1ccccc1)NC(=O)[C@@H](NC(=O)CNC(=O)[C@@H](N)CO)[C@@H](C)O)[C@@H](C)CC)C(=O)N[C@@H](C)C(=O)N[C@@H](CCSC)C(=O)N[C@@H](CC(=O)O)C(=O)N[C@@H](CCCNC(=N)N)C(=O)N[C@H](C(=O)N[C@@H](CCCCNC(=O)CCCCCCCCCCCCCCCCC(=O)O)C(=O)N[C@@H](CCC(N)=O)C(=O)N[C@@H](CCC(N)=O)C(=O)N[C@@H](CC(=O)O)C(=O)N[C@@H](Cc1ccccc1)C(=O)N[C@H](C(=O)N[C@@H](CC(N)=O)C(=O)N[C@@H](Cc1c[nH]c2ccccc12)C(=O)N[C@@H](CC(C)C)C(=O)N[C@@H](CC(C)C)C(=O)N[C@@H](C)C(=O)N[C@@H](CCC(N)=O)C(=O)N[C@@H](CCCNC(=N)N)C(N)=O)C(C)C)[C@@H](C)CC [AT393] (H-SGTFISDYSIAMDRIK(C18 diacid)QQDFVNWLLAQR-NH2; N-terminus assumed) | No antagonism | No Agonism | No antagonism | 100% | 100.0% | 1 nM | 6% | 1 nM
